According to PMC11233931, “Remodeling tumor‐associated macrophage for anti‐cancer effects by rational design of irreversible inhibition of mitogen‐activated protein kinase‐activated protein kinase 2” (MedComm, 2024):

Experiments:
Assay in all cases: Eurofins kinase selectivity profile against 380 other human recombinant kinases (Table S2)
Assay type in all cases: biochemical
[1] = biological target: T1, 380 human recombinant protein kinases (Homo sapiens, UniProt P29317); details: EphA2(h), read-out: Inhibition rate
T1 construct: purchased Eurofins (Celle Lévescault)
T1 sequence (P29317 24-976): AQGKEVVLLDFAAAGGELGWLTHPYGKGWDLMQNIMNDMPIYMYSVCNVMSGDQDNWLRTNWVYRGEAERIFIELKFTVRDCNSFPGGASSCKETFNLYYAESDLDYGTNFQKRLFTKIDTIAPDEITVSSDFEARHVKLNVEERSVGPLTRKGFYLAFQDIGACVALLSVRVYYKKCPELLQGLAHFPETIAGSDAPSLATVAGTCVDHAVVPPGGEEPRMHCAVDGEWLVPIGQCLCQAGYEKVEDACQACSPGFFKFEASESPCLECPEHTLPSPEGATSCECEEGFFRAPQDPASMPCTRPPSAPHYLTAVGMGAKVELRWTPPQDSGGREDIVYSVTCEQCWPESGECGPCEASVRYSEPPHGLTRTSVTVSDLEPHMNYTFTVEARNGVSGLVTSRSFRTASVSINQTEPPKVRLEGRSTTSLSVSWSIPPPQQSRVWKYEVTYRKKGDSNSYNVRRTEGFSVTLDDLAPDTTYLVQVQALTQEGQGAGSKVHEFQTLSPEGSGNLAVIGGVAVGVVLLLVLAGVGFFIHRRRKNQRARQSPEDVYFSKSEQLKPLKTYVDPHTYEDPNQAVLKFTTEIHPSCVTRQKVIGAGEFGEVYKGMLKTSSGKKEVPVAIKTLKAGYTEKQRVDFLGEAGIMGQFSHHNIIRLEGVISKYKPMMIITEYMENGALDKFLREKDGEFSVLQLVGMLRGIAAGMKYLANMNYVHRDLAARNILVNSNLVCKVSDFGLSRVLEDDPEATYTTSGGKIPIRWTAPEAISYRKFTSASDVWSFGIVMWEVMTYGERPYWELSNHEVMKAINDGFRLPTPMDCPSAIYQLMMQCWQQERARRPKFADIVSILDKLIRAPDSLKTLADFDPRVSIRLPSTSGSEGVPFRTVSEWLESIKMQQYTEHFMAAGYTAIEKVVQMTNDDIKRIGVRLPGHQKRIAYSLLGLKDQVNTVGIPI
Procedure, shortened: (§1)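 Outsourced panel: 380 human recombinant kinases; inhibitor tested at various concentrations; purpose: MK2 selectivity check.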

[2] = biological target: T2, 380 human recombinant protein kinases (Homo sapiens, UniProt Q16816); details: PhKγ1(h), read-out: Inhibition rate
T2 construct: purchased Eurofins (Celle Lévescault)
T2 sequence (Q16816 whole entry): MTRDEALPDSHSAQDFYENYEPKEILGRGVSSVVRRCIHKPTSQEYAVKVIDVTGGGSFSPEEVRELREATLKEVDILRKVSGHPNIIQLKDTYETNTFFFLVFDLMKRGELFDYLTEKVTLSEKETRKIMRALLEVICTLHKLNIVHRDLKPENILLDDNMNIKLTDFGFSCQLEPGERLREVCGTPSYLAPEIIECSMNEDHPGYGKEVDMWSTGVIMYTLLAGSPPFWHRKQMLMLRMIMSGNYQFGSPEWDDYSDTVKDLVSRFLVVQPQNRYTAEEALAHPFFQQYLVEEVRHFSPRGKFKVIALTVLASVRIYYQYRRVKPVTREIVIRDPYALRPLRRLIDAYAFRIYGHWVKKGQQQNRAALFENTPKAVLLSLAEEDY
Procedure, shortened: as §1

[3] = biological target: T3, 380 human recombinant protein kinases (Homo sapiens, UniProt O43781); details: DYRK3(h), read-out: Inhibition rate
T3 construct: purchased Eurofins (Celle Lévescault)
T3 sequence (O43781 1-588): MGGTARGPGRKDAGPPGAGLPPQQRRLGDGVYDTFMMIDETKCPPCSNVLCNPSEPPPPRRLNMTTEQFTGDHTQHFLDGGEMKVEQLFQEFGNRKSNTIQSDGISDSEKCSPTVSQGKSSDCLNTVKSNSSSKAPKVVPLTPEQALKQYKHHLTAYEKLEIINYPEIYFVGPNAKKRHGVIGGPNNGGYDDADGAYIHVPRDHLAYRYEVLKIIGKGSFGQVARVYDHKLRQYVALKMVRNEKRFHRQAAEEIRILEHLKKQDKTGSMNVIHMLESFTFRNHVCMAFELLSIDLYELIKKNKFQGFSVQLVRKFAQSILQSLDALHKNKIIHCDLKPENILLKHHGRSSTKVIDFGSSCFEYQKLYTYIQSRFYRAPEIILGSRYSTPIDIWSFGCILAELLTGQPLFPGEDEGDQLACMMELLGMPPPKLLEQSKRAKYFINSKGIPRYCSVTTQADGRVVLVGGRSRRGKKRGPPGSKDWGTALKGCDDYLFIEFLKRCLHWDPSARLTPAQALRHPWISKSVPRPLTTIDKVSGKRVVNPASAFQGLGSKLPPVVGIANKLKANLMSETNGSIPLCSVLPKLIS
Procedure, shortened: as §1

[4] = biological target: T4, 380 human recombinant protein kinases (Homo sapiens, UniProt Q15831); details: LKB1(h), read-out: Inhibition rate
T4 construct: purchased Eurofins (Celle Lévescault)
T4 sequence (Q15831 1-433): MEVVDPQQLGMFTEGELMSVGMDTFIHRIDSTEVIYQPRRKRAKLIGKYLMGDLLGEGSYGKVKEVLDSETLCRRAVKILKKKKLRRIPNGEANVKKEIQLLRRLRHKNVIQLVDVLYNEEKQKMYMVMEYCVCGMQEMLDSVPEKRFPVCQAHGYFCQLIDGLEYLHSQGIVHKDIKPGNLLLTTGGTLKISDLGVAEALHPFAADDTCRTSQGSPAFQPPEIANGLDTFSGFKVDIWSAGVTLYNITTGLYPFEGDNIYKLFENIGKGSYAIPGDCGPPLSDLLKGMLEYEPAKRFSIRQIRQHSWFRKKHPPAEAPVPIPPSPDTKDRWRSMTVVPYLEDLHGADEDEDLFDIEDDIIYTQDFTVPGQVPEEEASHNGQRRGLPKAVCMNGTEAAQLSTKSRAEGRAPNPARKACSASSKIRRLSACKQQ
Procedure, shortened: as §1

[5] = biological target: T5, 380 human recombinant protein kinases (Homo sapiens, UniProt P49761); details: CLK3(h), read-out: Inhibition rate
T5 construct: purchased Eurofins (Celle Lévescault)
T5 sequence (P49761 whole entry): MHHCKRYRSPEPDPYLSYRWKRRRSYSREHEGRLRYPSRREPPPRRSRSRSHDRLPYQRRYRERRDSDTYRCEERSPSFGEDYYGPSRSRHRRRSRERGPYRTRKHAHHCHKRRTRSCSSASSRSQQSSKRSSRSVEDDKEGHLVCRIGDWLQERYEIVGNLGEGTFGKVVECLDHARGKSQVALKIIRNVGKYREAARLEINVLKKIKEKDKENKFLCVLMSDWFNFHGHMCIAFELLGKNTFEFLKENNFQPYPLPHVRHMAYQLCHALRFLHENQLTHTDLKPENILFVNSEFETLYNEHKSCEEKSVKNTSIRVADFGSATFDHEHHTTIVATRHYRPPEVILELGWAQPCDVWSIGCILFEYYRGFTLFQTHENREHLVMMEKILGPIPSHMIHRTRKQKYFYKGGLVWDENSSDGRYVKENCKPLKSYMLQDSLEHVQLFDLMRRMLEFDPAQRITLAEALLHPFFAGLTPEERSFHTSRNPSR
Procedure, shortened: as §1

[6] = biological target: T6, 380 human recombinant protein kinases (Homo sapiens, UniProt P51956); details: NEK3(h), read-out: Inhibition rate
T6 construct: purchased Eurofins (Celle Lévescault)
T6 sequence (P51956 1-506): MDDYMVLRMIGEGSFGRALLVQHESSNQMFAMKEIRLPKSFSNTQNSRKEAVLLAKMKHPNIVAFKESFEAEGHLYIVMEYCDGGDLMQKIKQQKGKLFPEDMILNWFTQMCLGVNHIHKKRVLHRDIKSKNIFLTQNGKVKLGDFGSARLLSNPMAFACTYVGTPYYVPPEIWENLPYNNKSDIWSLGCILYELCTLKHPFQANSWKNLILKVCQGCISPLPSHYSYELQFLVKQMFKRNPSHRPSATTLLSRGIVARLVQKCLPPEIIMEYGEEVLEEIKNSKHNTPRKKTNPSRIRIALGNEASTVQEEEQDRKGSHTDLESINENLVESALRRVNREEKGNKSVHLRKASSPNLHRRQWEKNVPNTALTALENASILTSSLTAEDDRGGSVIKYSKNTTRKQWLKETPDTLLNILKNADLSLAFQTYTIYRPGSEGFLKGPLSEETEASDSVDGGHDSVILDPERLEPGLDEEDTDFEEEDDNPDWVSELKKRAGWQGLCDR
Procedure, shortened: as §1

`C=CC(=O)Nc1cc(-c2cc(-c3cc4c([nH]3)CCNC4=O)ccn2)ccc1OC(F)(F)F` [compound 11] gave an inhibition at 0.01 µM ([1]; 10 nM) of 0%, an inhibition at 0.1 µM ([1]; 100 nM) of 3% and an inhibition at 1 µM ([1]; 1000 nM) of -2%. It also gave an inhibition at 0.01 µM ([2]; 10 nM) of -3%, an inhibition at 0.1 µM ([2]; 100 nM) of -3% and an inhibition at 1 µM ([2]; 1000 nM) of 2%. For the same molecule, the inhibition at 0.01 µM ([3]; 10 nM) was 34%, the inhibition at 0.1 µM ([3]; 100 nM) was 83% and the inhibition at 1 µM ([3]; 1000 nM) was 95%. It also gave an inhibition at 0.01 µM ([4]; 10 nM) of -5%, an inhibition at 0.1 µM ([4]; 100 nM) of -3% and an inhibition at 1 µM ([4]; 1000 nM) of -6%. For the same molecule, the inhibition at 0.01 µM ([5]; 10 nM) was -3%, the inhibition at 0.1 µM ([5]; 100 nM) was 3% and the inhibition at 1 µM ([5]; 1000 nM) was 10%. It also gave an inhibition at 0.01 µM ([6]; 10 nM) of -6%, an inhibition at 0.1 µM ([6]; 100 nM) of 0% and an inhibition at 1 µM ([6]; 1000 nM) of -1%.
